Results as given in ChEMBL document CHEMBL4342522 (J Med Chem, 2020).
pIC50, pKi: −log10 of the molar value.

Experiments:
[1] = Unbound hepatic clearance in mouse liver microsomes; type: ADME, Microsome
[2] = Unbound hepatic clearance in rat liver microsomes; type: ADME, Microsome
[3] = Unbound hepatic clearance in human liver microsomes; type: ADME, Microsome
NCI-H1299 = assay: Antiproliferative activity against human H1299 cells assessed as reduction in cell viability after 5 days by CellTiter-Glo assay; type: functional, cell-based; details: NCI-H1299, 120 h
[4] = target: T1, Bromodomain-containing protein 4 (Homo sapiens, UniProt O60885); assay: biochemical; type: cell-based
Description: Inhibition of human N-terminal His6 tagged BRD4 BD1 (57 to 168) residues expressed in Escherichia coli BL21(DE3) cells after 1 hr by TR-FRET assay

[5] = target: T1, Bromodomain-containing protein 4; assay: Inhibition of human N-terminal His6 tagged BRD4 BD2 (352 to 457) residues expressed in Escherichia coli BL21(DE3) cells after 1 hr by TR-FRET assay
SKM-1 = assay: Antiproliferative activity against human SKM1 cells assessed as reduction in cell viability after 5 days by CellTiter-Glo assay; type: functional, cell-based; details: SKM-1, 120 h
[6] = Permeability in dog MDCK cells by PAMPA; type: ADME, cell-based, Canis lupus familiaris; details: read-out: permeability

SMILES | CL free [1] | CL free [2] | CL free [3] | pIC50 (NCI-H1299) | pKi [4] | pKi [5] | pIC50 (SKM-1) | Papp [6]
Cc1cc(F)cc(C)c1Oc1ccc(C(C)(C)O)cc1-c1cn(C)c(=O)c2[nH]c(C(=O)NC3CC3)cc12 | 3330 mL/min/kg | 333 mL/min/kg | 800 mL/min/kg | 5.72 | 6.64 | 9.30 | 8.21 | 1.13 ×10⁻⁶ cm/s
CCNC(=O)c1cc2c(-c3cc(S(=O)(=O)CC)ccc3Oc3c(C)cccc3F)cn(C)c(=O)c2[nH]1 | – | 2530 mL/min/kg | 150 mL/min/kg | 6.59 | 7.89 | 9.05 | 8.60 | 15.4 ×10⁻⁶ cm/s
CCNC(=O)c1cc2c(-c3cc(NC(C)=O)ccc3Oc3c(C)cc(F)cc3C)cn(C)c(=O)c2[nH]1 | 2330 mL/min/kg | 250 mL/min/kg | 183 mL/min/kg | 5.80 | 7.05 | 8.96 | 7.85 | 1.06 ×10⁻⁶ cm/s
CCN(C)C(=O)c1cc2c(-c3cc(S(C)(=O)=O)ccc3Oc3ccc(F)cc3F)cn(C)c(=O)c2[nH]1 | 288 mL/min/kg | 282 mL/min/kg | 63.3 mL/min/kg | 6.41 | 7.89 | 7.40 | 7.25 | 16 ×10⁻⁶ cm/s
CCNC(=O)c1cc2c(-c3cc(S(=O)(=O)CC)ccc3Oc3c(C)cccc3Cl)cn(C)c(=O)c2[nH]1 | – | 2120 mL/min/kg | 255 mL/min/kg | 6.17 | 7.52 | 9.05 | 8.21 | 2.73 ×10⁻⁶ cm/s
CCNC(=O)c1cc2c(-c3cc(S(=O)(=O)CC)ccc3Oc3cc(C)cc(C)c3)cn(C)c(=O)c2[nH]1 | 1600 mL/min/kg | 1620 mL/min/kg | 533 mL/min/kg | 7.03 | 8.08 | 9.15 | 8.59 | 3.1 ×10⁻⁶ cm/s
CCNC(=O)c1cc2c(-c3cc(NC(=O)OC)ccc3Oc3c(C)cc(F)cc3C)cn(C)c(=O)c2[nH]1 | 6330 mL/min/kg | – | 550 mL/min/kg | 5.62 | 6.54 | 8.54 | 7.30 | 0.92 ×10⁻⁶ cm/s
Cn1cc(-c2cc(S(C)(=O)=O)ccc2Oc2ccc(F)cc2F)c2cc(C(N)=O)[nH]c2c1=O | < 120 mL/min/kg | < 68.3 mL/min/kg | 76.7 mL/min/kg | 6.22 | 8.07 | 8.92 | 8.00 | 2.4 ×10⁻⁶ cm/s
CCNC(=O)c1cc2c(-c3cc(S(=O)(=O)CC)ccc3-n3ccc4ccccc43)cn(C)c(=O)c2[nH]1 | 2170 mL/min/kg | 633 mL/min/kg | 450 mL/min/kg | 5.89 | 6.85 | 8.74 | 7.30 | 15.9 ×10⁻⁶ cm/s
CCNC(=O)c1cc2c(-c3cc(S(N)(=O)=O)ccc3Oc3c(C)cccc3C)cn(C)c(=O)c2[nH]1 | – | – | – | 5.52 | 7.18 | 8.96 | 8.15 | –
CCNC(=O)c1cc2c(-c3cc(S(=O)(=O)CC)ccc3N3CCc4cccc(C)c43)cn(C)c(=O)c2[nH]1 | – | – | – | 6.47 | 8.05 | 9.30 | 8.38 | –
CCNC(=O)c1cc2c(-c3cc(NS(=O)(=O)CC)ccc3Oc3c(C)cccc3C)cn(C)c(=O)c2[nH]1 | 1320 mL/min/kg | 14700 mL/min/kg | 183 mL/min/kg | 6.52 | 7.77 | 9.10 | 8.77 | 0.22 ×10⁻⁶ cm/s
COc1ccc2c(c1)[C@]13CCCC[C@@H]1[C@H](C2)N(C)CC3 [DEXTROMETHORPHAN] | – | 123 mL/min/kg | – | – | – | – | – | –
CCNC(=O)c1cc2c(-c3cc(S(C)(=O)=O)ccc3Oc3ccc(F)cc3F)cn(C)c(=O)c2[nH]1 | < 91.7 mL/min/kg | < 51.7 mL/min/kg | 60 mL/min/kg | 6.43 | – | 8.89 | 8.18 | 10.8 ×10⁻⁶ cm/s
CCNC(=O)c1cc2c(-c3cc(NC(C)=O)ccc3Oc3c(C)cccc3C)cn(C)c(=O)c2[nH]1 | 2000 mL/min/kg | 667 mL/min/kg | 83.3 mL/min/kg | 6.14 | 7.12 | 9.30 | 8.46 | 1.96 ×10⁻⁶ cm/s
CCNC(=O)c1cc2c(-c3cc(S(=O)(=O)CC)ccc3-c3c(C)cccc3C)cn(C)c(=O)c2[nH]1 | – | 617 mL/min/kg | 550 mL/min/kg | < 5.00 | < 4.92 | 7.66 | 5.89 | 9 ×10⁻⁶ cm/s
CCNC(=O)c1cc2c(-c3cc(CO)ccc3Oc3c(C)cccc3C)cn(C)c(=O)c2[nH]1 | 2330 mL/min/kg | – | 417 mL/min/kg | 5.52 | 6.57 | 8.77 | 7.19 | 1.69 ×10⁻⁶ cm/s
CCNC(=O)c1cc2c(-c3cc(S(=O)(=O)CC)ccc3Oc3ccccc3C(C)(C)C)cn(C)c(=O)c2[nH]1 | – | 1430 mL/min/kg | 1620 mL/min/kg | 6.34 | 7.66 | 8.68 | 7.68 | 5.6 ×10⁻⁶ cm/s
Cc1cc(F)cc(C)c1Oc1ccc(C(C)(C)O)cc1-c1cn(C)c(=O)c2[nH]c(C(=O)NC34CC(C3)C4)cc12 | 11800 mL/min/kg | – | 2000 mL/min/kg | 5.96 | 6.36 | 8.89 | 8.00 | 0.97 ×10⁻⁶ cm/s
CCNC(=O)c1cc2c(-c3cc(S(=O)(=O)CC)ccc3Oc3c(C)cccc3C(C)(C)C)cn(C)c(=O)c2[nH]1 | – | – | – | 5.49 | 6.40 | 7.82 | 6.54 | –
Cc1cc(F)cc(C)c1Oc1ccc(C(C)(C)O)cc1-c1cn(C)c(=O)c2[nH]c(C(=O)NC(C)(C)C)cc12 | 8670 mL/min/kg | 1450 mL/min/kg | 2170 mL/min/kg | 5.82 | 6.51 | 8.89 | 7.60 | –
Cc1cc(F)cc(C)c1Oc1ccc(C(C)(C)O)cc1-c1cn(C)c(=O)c2[nH]c(C(=O)NC(C)(C)C(F)(F)F)cc12 | 46700 mL/min/kg | 18300 mL/min/kg | 9500 mL/min/kg | 5.59 | – | – | 7.10 | 0.57 ×10⁻⁶ cm/s
CCNC(=O)c1cc2c(-c3cc(C(=O)O)ccc3Oc3c(C)cccc3C)cn(C)c(=O)c2[nH]1 | – | – | – | < 5.00 | 6.52 | 8.55 | 5.51 | 0.74 ×10⁻⁶ cm/s
CCNC(=O)c1ccc(Oc2c(C)cccc2C)c(-c2cn(C)c(=O)c3[nH]c(C(=O)NCC)cc23)c1 | 317 mL/min/kg | – | 217 mL/min/kg | 5.82 | 6.89 | 8.74 | 7.72 | 2.63 ×10⁻⁶ cm/s
CCNC(=O)c1cc2c(-c3cc(C4(O)COC4)ccc3Oc3c(C)cc(F)cc3C)cn(C)c(=O)c2[nH]1 | 533 mL/min/kg | 267 mL/min/kg | 350 mL/min/kg | 5.57 | – | 8.96 | 7.62 | 1.66 ×10⁻⁶ cm/s
CCNC(=O)c1cc2c(-c3cc(NS(=O)(=O)CC)ccc3Oc3c(C)cc(F)cc3C)cn(C)c(=O)c2[nH]1 | 2000 mL/min/kg | – | 317 mL/min/kg | 6.01 | 7.31 | 8.96 | 7.38 | 0.23 ×10⁻⁶ cm/s
CCNC(=O)c1cc2c(-c3cc(S(=O)(=O)CC)ccc3Oc3ccccc3C)cn(C)c(=O)c2[nH]1 | 1100 mL/min/kg | – | 142 mL/min/kg | 7.02 | 8.08 | 9.10 | 8.48 | 3.68 ×10⁻⁶ cm/s
